Legend:
Format in all cases: in vivo
Conditions in all cases: 1000 g/h, evaluated after 13 days, five point scale
[1] = tested on: Echinochloa crus-galli (ECHCG); experiment: Pre-emergence glasshouse herbicide test, Echinochloa crus-galli
Description: (§1) Seeds of a variety of test species are sown in standard soil in pots (Lolium perenne (LOLPE), Solanum nigrum (SOLNI), Amaranthus retoflexus (AMARE), Setaria faberi (SETFA), Echinochloa crus-galli (ECHCG), Ipomoea hederacea (IPOHE)). After cultivation for one day (pre-emergence) or after 8 days cultivation (post-emergence) under controlled conditions in a glasshouse (at 24/16° C., day/night; 14 hours light; 65% humidity), the plants are sprayed with an aqueous spray solution derived from the formulation of the technical active ingredient in acetone/water (50:50) solution containing 0.5% Tween 20 (polyoxyethelyene sorbitan monolaurate, CAS RN 9005-64-5). […] The test plants are then grown in a glasshouse under controlled conditions in a glasshouse (at 24/16° C., day/night; 14 hours light; 65% humidity) and watered twice daily. After 13 days for pre and post-emergence, the test is evaluated for the percentage damage caused to the plant. The biological activities are shown in the following table on a five point scale (5=80-100%; 4=60-79%; 3=40-59%; 2=20-39%; 1=0-19%).

[2] = tested on: Ipomoea hederacea (IPOHE); experiment: Pre-emergence glasshouse herbicide test, Ipomoea hederacea
Description: as §1

[3] = tested on: Echinochloa crus-galli (ECHCG); experiment: Post-emergence glasshouse herbicide test, Echinochloa crus-galli
Description: as §1

[4] = tested on: Amaranthus retoflexus (AMARE); experiment: Post-emergence glasshouse herbicide test, Amaranthus retoflexus
Description: as §1

Lolium perenne (LOLPE) [5] = experiment: Post-emergence glasshouse herbicide test, Lolium perenne
Description: as §1

Solanum nigrum (SOLNI) [6] = experiment: Pre-emergence glasshouse herbicide test, Solanum nigrum
Description: (§2) Seeds of a variety of test species are sown in standard soil in pots (Lolium perenne (LOLPE), Solanum nigrum (SOLNI), Amaranthus retoflexus (AMARE), Setaria faberi (SETFA), Echinochloa crus-galli (ECHCG), Ipomoea hederacea (IPOHE)). After cultivation for one day (pre-emergence) or after 8 days cultivation (post-emergence) under controlled conditions in a glasshouse (at 24/16° C., day/night; 14 hours light; 65% humidity), the plants are sprayed with an aqueous spray solution derived from the formulation of the technical active ingredient in acetone/water (50:50) solution containing 0.5% Tween 20 (polyoxyethelyene sorbitan monolaurate, CAS RN 9005-64-5). Compounds are applied at 1000 g/h. The test plants are then grown in a glasshouse under controlled conditions in a glasshouse (at 24/16° C., day/night; 14 hours light; 65% humidity) and watered twice daily. After 13 days for pre and post-emergence, the test is evaluated for the percentage damage caused to the plant. The biological activities are shown in the following table on a five point scale (5=80-100%; 4=60-79%; 3=40-59%; 2=20-39%; 1=0-19%).

Solanum nigrum (SOLNI) [7] = experiment: Post-emergence glasshouse herbicide test, Solanum nigrum
Description: as §2

Lolium perenne (LOLPE) [8] = experiment: Pre-emergence glasshouse herbicide test, Lolium perenne
Description: as §1

[9] = tested on: Ipomoea hederacea (IPOHE); experiment: Post-emergence glasshouse herbicide test, Ipomoea hederacea
Description: as §1

[10] = tested on: Amaranthus retoflexus (AMARE); experiment: Pre-emergence glasshouse herbicide test, Amaranthus retoflexus
Description: as §1

Setaria faberi (SETFA) [11] = experiment: Pre-emergence glasshouse herbicide test, Setaria faberi
Description: as §1

Setaria faberi (SETFA) [12] = experiment: Post-emergence glasshouse herbicide test, Setaria faberi
Description: as §1

For `O=C(Nc1nnnn1-c1ccccc1)c1nn2cnn(-c3ccccc3)c2nc1=O` [Compound 1.027], the “percentage damage caused to the plant, PRE Application ECHCG” value [1] was 1 (1=0-19%), the “percentage damage caused to the plant, PRE Application IPOHE” value [2] was 4 (4=60-79%) and the “percentage damage caused to the plant, POST Application ECHCG” value [3] was 1 (1=0-19%). For the same compound, the “percentage damage caused to the plant, POST Application AMARE” value [4] was 4 (4=60-79%), the “percentage damage caused to the plant, POST Application LOLPE” value (Lolium perenne (LOLPE) [5]) was 2 (2=20-39%) and the “percentage damage caused to the plant, PRE Application SOLNI” value (Solanum nigrum (SOLNI) [6]) was 5 (5=80-100%). The “percentage damage caused to the plant, POST Application SOLNI” value (Solanum nigrum (SOLNI) [7]) was 5 (5=80-100%), the “percentage damage caused to the plant, PRE Application LOLPE” value (Lolium perenne (LOLPE) [8]) was 1 (1=0-19%) and the “percentage damage caused to the plant, POST Application IPOHE” value [9] was 3 (3=40-59%). The “percentage damage caused to the plant, PRE Application AMARE” value [10] was 5 (5=80-100%), the “percentage damage caused to the plant, PRE Application SETFA” value (Setaria faberi (SETFA) [11]) was 2 (2=20-39%) and the “percentage damage caused to the plant, POST Application SETFA” value (Setaria faberi (SETFA) [12]) was 2 (2=20-39%).
With `CCCn1nnnc1NC(=O)c1nn2cnn(-c3ccccc3C)c2nc1=O` [Compound 1.028] the “percentage damage caused to the plant, PRE Application ECHCG” value [1] was 5 (5=80-100%), the “percentage damage caused to the plant, PRE Application IPOHE” value [2] was 5 (5=80-100%) and the “percentage damage caused to the plant, POST Application ECHCG” value [3] was 5 (5=80-100%). For the same compound, the “percentage damage caused to the plant, POST Application AMARE” value [4] was 5 (5=80-100%), the “percentage damage caused to the plant, POST Application LOLPE” value (Lolium perenne (LOLPE) [5]) was 5 (5=80-100%) and the “percentage damage caused to the plant, PRE Application SOLNI” value (Solanum nigrum (SOLNI) [6]) was 5 (5=80-100%). The “percentage damage caused to the plant, POST Application SOLNI” value (Solanum nigrum (SOLNI) [7]) was 5 (5=80-100%), the “percentage damage caused to the plant, PRE Application LOLPE” value (Lolium perenne (LOLPE) [8]) was 5 (5=80-100%) and the “percentage damage caused to the plant, POST Application IPOHE” value [9] was 5 (5=80-100%). For the same compound, the “percentage damage caused to the plant, PRE Application AMARE” value [10] was 5 (5=80-100%), the “percentage damage caused to the plant, PRE Application SETFA” value (Setaria faberi (SETFA) [11]) was 5 (5=80-100%) and the “percentage damage caused to the plant, POST Application SETFA” value (Setaria faberi (SETFA) [12]) was 5 (5=80-100%).
For `Cc1ccccc1-n1ncn2nc(C(=O)Nc3nnnn3C)c(=O)nc12` [Compound 1.030], the “percentage damage caused to the plant, PRE Application ECHCG” value [1] was 5 (5=80-100%), the “percentage damage caused to the plant, PRE Application IPOHE” value [2] was 5 (5=80-100%) and the “percentage damage caused to the plant, POST Application ECHCG” value [3] was 5 (5=80-100%). For the same compound, the “percentage damage caused to the plant, POST Application AMARE” value [4] was 5 (5=80-100%), the “percentage damage caused to the plant, POST Application LOLPE” value (Lolium perenne (LOLPE) [5]) was 4 (4=60-79%) and the “percentage damage caused to the plant, PRE Application SOLNI” value (Solanum nigrum (SOLNI) [6]) was 5 (5=80-100%). For the same compound, the “percentage damage caused to the plant, POST Application SOLNI” value (Solanum nigrum (SOLNI) [7]) was 5 (5=80-100%), the “percentage damage caused to the plant, PRE Application LOLPE” value (Lolium perenne (LOLPE) [8]) was 4 (4=60-79%) and the “percentage damage caused to the plant, POST Application IPOHE” value [9] was 5 (5=80-100%). For the same compound, the “percentage damage caused to the plant, PRE Application AMARE” value [10] was 5 (5=80-100%), the “percentage damage caused to the plant, PRE Application SETFA” value (Setaria faberi (SETFA) [11]) was 5 (5=80-100%) and the “percentage damage caused to the plant, POST Application SETFA” value (Setaria faberi (SETFA) [12]) was 5 (5=80-100%).
In the case of `CCCn1nnnc1NC(=O)c1nn2cnn(CCC)c2nc1=O` [Compound 1.031], the “percentage damage caused to the plant, PRE Application ECHCG” value [1] is reported as 5 (5=80-100%), the “percentage damage caused to the plant, PRE Application IPOHE” value [2] is reported as 5 (5=80-100%) and the “percentage damage caused to the plant, POST Application ECHCG” value [3] is reported as 5 (5=80-100%). For the same compound, the “percentage damage caused to the plant, POST Application AMARE” value [4] was 5 (5=80-100%), the “percentage damage caused to the plant, POST Application LOLPE” value (Lolium perenne (LOLPE) [5]) was 5 (5=80-100%) and the “percentage damage caused to the plant, PRE Application SOLNI” value (Solanum nigrum (SOLNI) [6]) was 5 (5=80-100%). The “percentage damage caused to the plant, POST Application SOLNI” value (Solanum nigrum (SOLNI) [7]) was 5 (5=80-100%), the “percentage damage caused to the plant, PRE Application LOLPE” value (Lolium perenne (LOLPE) [8]) was 5 (5=80-100%) and the “percentage damage caused to the plant, POST Application IPOHE” value [9] was 5 (5=80-100%). The “percentage damage caused to the plant, PRE Application AMARE” value [10] was 5 (5=80-100%), the “percentage damage caused to the plant, PRE Application SETFA” value (Setaria faberi (SETFA) [11]) was 4 (4=60-79%) and the “percentage damage caused to the plant, POST Application SETFA” value (Setaria faberi (SETFA) [12]) was 5 (5=80-100%).
With `CCn1nnnc1NC(=O)c1nn2cnn(-c3cccc(Cl)c3)c2nc1=O` [Compound 1.033] the “percentage damage caused to the plant, PRE Application ECHCG” value [1] was 5 (5=80-100%), the “percentage damage caused to the plant, PRE Application IPOHE” value [2] was 2 (2=20-39%) and the “percentage damage caused to the plant, POST Application ECHCG” value [3] was 5 (5=80-100%). For the same compound, the “percentage damage caused to the plant, POST Application AMARE” value [4] was 5 (5=80-100%), the “percentage damage caused to the plant, POST Application LOLPE” value (Lolium perenne (LOLPE) [5]) was 4 (4=60-79%) and the “percentage damage caused to the plant, PRE Application SOLNI” value (Solanum nigrum (SOLNI) [6]) was 5 (5=80-100%). For the same compound, the “percentage damage caused to the plant, POST Application SOLNI” value (Solanum nigrum (SOLNI) [7]) was 5 (5=80-100%), the “percentage damage caused to the plant, PRE Application LOLPE” value (Lolium perenne (LOLPE) [8]) was 5 (5=80-100%) and the “percentage damage caused to the plant, POST Application IPOHE” value [9] was 5 (5=80-100%). The “percentage damage caused to the plant, PRE Application AMARE” value [10] was 5 (5=80-100%), the “percentage damage caused to the plant, PRE Application SETFA” value (Setaria faberi (SETFA) [11]) was 4 (4=60-79%) and the “percentage damage caused to the plant, POST Application SETFA” value (Setaria faberi (SETFA) [12]) was 5 (5=80-100%).
